Values of other authors as cited in patent US20080131525A1, “Therapeutic Nutrient Compositions Or Combinations And Methods Of Their Use” (priority 2004, published 2008).
Residues, ends and D or L forms follow the SMILES beside them.

Settings: human, in vivo

In the case of `C[C@H](N)C(=O)N[C@@H](CCC(N)=O)C(=O)O` [ala-gln, N(2)-L-alanyl-L-glutamine] (H-Ala-Gln-OH), the calculated distribution volume is listed as “equivalent to that of the extracellular compartment”, the “dipeptide in plasma after the end of infusion” value is listed as “no longer detectable in plasma” and the dipeptide in urine is listed as “no ala-gln was detected in urine”. The half-life was 2.4 to 3.8 min, the plasma clearance rate was 1.92 L/min and the “dipeptide in plasma over the infusion period” value (24 mg/kg) was “only trace quantities”. For the same molecule, the “hydrolysis after intravenous infusion” value (iv) was “rapidly hydrolysed” and the tolerability (iv) was “well tolerated”.
